Test results reported in ChEMBL document CHEMBL3877333, “Bicyclic Ketone Sulfonamide Compounds” (ACS Med Chem Lett, 2017).

Molecular target: Sodium channel protein type 9 subunit alpha (Homo sapiens, UniProt Q15858)
Test: Inhibition of human Nav1.7 expressed in HEK293 cells at holding potential yielding 20 to 50% inactivation measured after 3 mins by patchXpress electrophysiology assay
Type: cell-based

Sequence of Sodium channel protein type 9 subunit alpha (Q15858 whole entry): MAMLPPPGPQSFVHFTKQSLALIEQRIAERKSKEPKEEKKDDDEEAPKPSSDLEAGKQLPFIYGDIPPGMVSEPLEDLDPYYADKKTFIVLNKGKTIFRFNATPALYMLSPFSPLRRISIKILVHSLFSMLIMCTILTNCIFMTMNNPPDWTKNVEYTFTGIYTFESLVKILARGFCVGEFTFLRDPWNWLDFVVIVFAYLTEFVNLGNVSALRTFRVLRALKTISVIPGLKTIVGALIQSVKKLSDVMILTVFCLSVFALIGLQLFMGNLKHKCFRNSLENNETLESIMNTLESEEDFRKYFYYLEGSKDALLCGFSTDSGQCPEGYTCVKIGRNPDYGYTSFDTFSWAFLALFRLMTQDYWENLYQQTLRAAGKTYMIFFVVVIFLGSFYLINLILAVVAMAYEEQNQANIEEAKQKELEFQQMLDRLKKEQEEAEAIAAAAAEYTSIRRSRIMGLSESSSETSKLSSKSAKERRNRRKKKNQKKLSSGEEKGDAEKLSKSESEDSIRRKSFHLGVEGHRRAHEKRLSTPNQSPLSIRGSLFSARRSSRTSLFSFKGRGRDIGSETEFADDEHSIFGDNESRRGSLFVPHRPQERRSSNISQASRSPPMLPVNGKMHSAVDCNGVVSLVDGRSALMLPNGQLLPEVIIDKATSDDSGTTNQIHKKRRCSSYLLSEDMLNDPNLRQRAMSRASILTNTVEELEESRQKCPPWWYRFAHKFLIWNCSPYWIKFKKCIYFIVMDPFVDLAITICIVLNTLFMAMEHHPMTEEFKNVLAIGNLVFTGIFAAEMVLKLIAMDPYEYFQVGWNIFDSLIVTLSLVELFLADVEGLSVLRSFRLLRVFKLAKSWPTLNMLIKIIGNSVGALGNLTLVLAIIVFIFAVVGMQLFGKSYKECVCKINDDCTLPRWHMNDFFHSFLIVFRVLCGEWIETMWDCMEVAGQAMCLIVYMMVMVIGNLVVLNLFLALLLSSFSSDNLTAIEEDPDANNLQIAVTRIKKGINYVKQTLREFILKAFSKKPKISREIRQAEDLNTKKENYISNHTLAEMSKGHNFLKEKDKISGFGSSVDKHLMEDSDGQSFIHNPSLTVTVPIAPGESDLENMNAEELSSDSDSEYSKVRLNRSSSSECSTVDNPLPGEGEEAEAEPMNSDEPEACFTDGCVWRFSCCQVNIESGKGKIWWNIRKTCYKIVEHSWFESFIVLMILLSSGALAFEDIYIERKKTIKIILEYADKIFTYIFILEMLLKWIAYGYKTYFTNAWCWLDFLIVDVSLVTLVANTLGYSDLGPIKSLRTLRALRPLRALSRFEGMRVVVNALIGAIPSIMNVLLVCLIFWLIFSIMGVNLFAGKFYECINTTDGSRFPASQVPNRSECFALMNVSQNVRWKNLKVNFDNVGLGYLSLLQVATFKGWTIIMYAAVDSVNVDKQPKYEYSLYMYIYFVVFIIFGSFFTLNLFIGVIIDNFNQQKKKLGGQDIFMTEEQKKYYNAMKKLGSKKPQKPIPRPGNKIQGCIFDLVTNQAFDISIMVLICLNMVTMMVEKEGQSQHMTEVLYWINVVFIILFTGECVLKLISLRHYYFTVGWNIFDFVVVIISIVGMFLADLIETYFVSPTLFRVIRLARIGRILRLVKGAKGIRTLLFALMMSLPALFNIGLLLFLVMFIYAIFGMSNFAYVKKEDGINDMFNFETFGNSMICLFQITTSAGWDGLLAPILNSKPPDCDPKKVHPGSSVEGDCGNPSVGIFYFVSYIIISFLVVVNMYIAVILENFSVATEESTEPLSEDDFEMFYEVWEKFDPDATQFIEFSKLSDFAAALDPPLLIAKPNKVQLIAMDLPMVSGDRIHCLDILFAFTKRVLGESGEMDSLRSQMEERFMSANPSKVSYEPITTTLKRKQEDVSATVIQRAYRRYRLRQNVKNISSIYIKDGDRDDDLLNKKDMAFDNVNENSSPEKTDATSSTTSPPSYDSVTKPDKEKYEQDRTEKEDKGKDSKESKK

| SMILES | IC50 |
| --- | --- |
| COc1cc(-c2ccc(F)c(F)c2)c(F)cc1-n1c2c(ccc1=O)CN(S(=O)(=O)Nc1cccnn1)CC2 | 23.7 nM |
| COc1cc(-c2ccc(Cl)c(C)c2)c(F)cc1-n1c2c(ccc1=O)CN(S(=O)(=O)Nc1cccnn1)CC2 | 19.6 nM |
| COc1cc(-c2cccc(C(F)(F)F)c2)c(F)cc1-n1c2c(ccc1=O)CN(S(=O)(=O)Nc1ccon1)CC2 | 4.7 nM |

More lines, now with the values ahead:

| IC50 | SMILES |
| --- | --- |
| 12.3 nM | COc1cc(-c2cc(OC)c(-n3c4c(ccc3=O)CN(S(=O)(=O)Nc3ccon3)CC4)cc2F)ccc1C |
| 6.7 nM | COc1cc(-c2ccc(F)c(F)c2)c(F)cc1-n1c2c(ccc1=O)CN(S(=O)(=O)Nc1ccon1)CC2 |
| 4.3 nM | COc1cc(-c2cc(F)cc(Cl)c2)c(F)cc1-n1c2c(ccc1=O)CN(S(=O)(=O)Nc1ccon1)CC2 |
| 5.5 nM | COc1cc(-c2cccc(OC(F)F)c2)c(F)cc1-n1c2c(ccc1=O)CN(S(=O)(=O)Nc1ccon1)CC2 |
